Measured values published in patent US20110178064A1, “SPIRO CONDENSED […] DERIVATIVES FOR USE AS ANTIBACTERIAL” (A[…]&D, priority 2007, published 2011).
Converted amounts (≈) assume the structure as drawn. Where two headings read alike, the source gives them in different places.

Assays:
[1] = biological target: Escherichia coli DNA gyrase A/B tetramer (Escherichia coli, UniProt P0AES4+P0AES6); test: DNA gyrase supercoiling activity fluorescence polarisation assay; assay type: biochemical
Outline: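 Gyrase supercoiling reactions quenched with 40 nM 5′-BODIPY-FL oligodeoxynucleotide triplex probe in pH 3.5 NaCl/sodium acetate buffer; fluorescence anisotropy read after 60 min (485/535 nm).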

Eco524 = test: Bacterial susceptibility testing (MIC) in liquid media, 96 well format; assay type: cell-based; settings: Escherichia coli
From the text: (§1) Compounds may be tested for antimicrobial activity by susceptibility testing in liquid media in a 96 well format. Compounds may be dissolved in dimethylsulfoxide and tested in 10 doubling dilutions in the susceptibility assays. The organisms used in the assay may be grown overnight on suitable agar media and then suspended in a liquid medium appropriate for the growth of the organism. The suspension may be a 0.5 McFarland and a further 1 in 10 dilution may be advantageously made into the same liquid medium to prepare the final organism suspension in 100 μL. Plates may be incubated under appropriate conditions at 37° C. for 24 hours prior to reading. […] Compounds may be evaluated against organisms such as Gram-positive species, including Staphylococcus aureus, Streptococcus pneumoniae, Streptococcus pyogenes, and Enterococcus faecium; and Gram-negative species including Haemophilus influenzae, Escherichia coli and Moraxella catarrhalis.

Hin737 = test: as above; assay type: cell-based; settings: Haemophilus influenzae
From the text: as §1

Mca445 = test: as above; assay type: cell-based; settings: Moraxella catarrhalis
From the text: as §1

Hin158 = test: as above; assay type: cell-based; settings: Haemophilus influenzae
From the text: as §1

Sau517 = test: as above; assay type: cell-based; settings: Staphylococcus aureus
From the text: as §1

Hin446 = test: as above; assay type: cell-based; settings: Haemophilus influenzae
From the text: as §1

Escherichia coli DNA gyrase A/B tetramer, sequence (P0AES4 whole entry, one chain of several): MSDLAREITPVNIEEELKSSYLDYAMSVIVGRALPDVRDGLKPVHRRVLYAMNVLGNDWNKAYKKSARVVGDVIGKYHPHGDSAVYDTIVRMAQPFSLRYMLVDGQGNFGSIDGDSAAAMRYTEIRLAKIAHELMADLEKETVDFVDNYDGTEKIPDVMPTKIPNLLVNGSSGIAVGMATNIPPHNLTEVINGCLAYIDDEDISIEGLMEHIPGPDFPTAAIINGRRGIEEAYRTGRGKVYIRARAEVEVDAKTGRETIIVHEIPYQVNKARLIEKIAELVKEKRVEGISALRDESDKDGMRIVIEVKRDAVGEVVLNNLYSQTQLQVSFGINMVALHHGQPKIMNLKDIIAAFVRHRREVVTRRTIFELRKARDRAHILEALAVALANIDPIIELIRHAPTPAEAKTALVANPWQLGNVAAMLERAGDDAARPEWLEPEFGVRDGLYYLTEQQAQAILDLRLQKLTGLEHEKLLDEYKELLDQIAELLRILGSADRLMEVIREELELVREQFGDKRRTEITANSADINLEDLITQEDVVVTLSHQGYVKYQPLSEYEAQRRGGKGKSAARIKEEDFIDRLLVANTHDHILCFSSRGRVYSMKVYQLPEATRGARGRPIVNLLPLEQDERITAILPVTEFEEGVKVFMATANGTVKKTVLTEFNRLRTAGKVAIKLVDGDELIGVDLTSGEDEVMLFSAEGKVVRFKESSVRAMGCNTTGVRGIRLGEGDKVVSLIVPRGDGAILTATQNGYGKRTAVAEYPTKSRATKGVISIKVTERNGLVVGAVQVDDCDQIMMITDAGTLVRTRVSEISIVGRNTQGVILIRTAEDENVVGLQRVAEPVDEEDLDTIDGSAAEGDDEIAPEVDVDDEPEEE

| Molecule | IC50 [1] | other results |
| --- | --- | --- |
| C[C@@H]1CN2c3ccc(Br)nc3CC3(C(=O)NC(=O)NC3=O)[C@H]2[C@H](C)O1 (relative stereo) [Example 19, (2R,4S,4aS)-rel-8-Bromo-2,4-dimethyl-2,4,4a,6-tetrahydro-1H,1′H-spiro[[1,4]oxazino[4,3-a][1,5]naphthyridine-5,5′-pyrimidine]-2′,4′,6′(3′H)-trione] | 11 µM | MIC (Eco524): 2 µg/mL (≈ 4.89 µM); MIC (Hin737): 16 µg/mL (≈ 39.1 µM); MIC (Mca445): 8 µg/mL (≈ 19.5 µM); MIC (Hin158): 1 µg/mL (≈ 2.44 µM); MIC (Sau517): 32 µg/mL (≈ 78.2 µM); MIC (Hin446): 4 µg/mL (≈ 9.77 µM) |
| C[C@@H]1CN2c3ncccc3CC3(C(=O)NC(=O)NC3=O)[C@H]2[C@H](C)O1 (relative stereo) [Example 18, (6aS,7S,9R)-rel-7,9-Dimethyl-6a,7,9,10-tetrahydro-1′H,5H-spiro[[1,4]oxazino[4,3-a][1,8]naphthyridine-6,5′-pyrimidine]-2′,4′,6′(3′H)-trione] | 51 µM | MIC (Eco524): 32 µg/mL (≈ 96.9 µM); MIC (Hin737): 32 µg/mL (≈ 96.9 µM); MIC (Hin158): 8 µg/mL (≈ 24.2 µM); MIC (Hin446): 16 µg/mL (≈ 48.4 µM) |
| (6aS,7S,9R)-rel-3-(6-Methoxypyrazin-2-yl)-7,9-dimethyl-6a,7,9,10-tetrahydro-2′H,5H-spiro[1,4-oxazino[4,3-a][1,7]naphthyridine-6,5′-pyrimidine]-2′,4′,6′(1′H,3′H)-trione [Example 105] | – | IC50 ([1]; E. coli DNA gyrase supercoiling, asterisk: no IC50 obtained at or below the indicated concentration, read-out: IC50): 19 µM |
| O=C1NC(=O)C2(Cc3ccnc(Cl)c3N3CCCCC32)C(=O)N1 (stereo not shown) [Example 4, 1-chloro-5,6a,7,8,9,10-Hexahydro-1′H-spiro[pyrido[1,2-a][1,7]naphthyridine-6,5′-pyrimidine]-2′,4′,6′(3′H)-trione] | > 100 µM | – |
| COc1nccnc1-c1cnc2c(c1)CC1(C(=O)NC(=O)NC1=O)[C@H]1[C@H](C)O[C@H](C)CN21 (relative stereo) [Example 92, (6aS,7S,9R)-rel-3-(3-Methoxypyrazin-2-yl)-7,9-dimethyl-6a,7,9,10-tetrahydro-2′H,5H-spiro[1,4-oxazino[4,3-a][1,8]naphthyridine-6,5′-pyrimidine]-2′,4′,6′(1′H,3′H)-trione] | 20 µM | – |
| C[C@@H]1CN2c3ncc(-c4noc(-c5ccccc5)n4)cc3CC3(C(=O)NC(=O)NC3=O)[C@H]2[C@H](C)O1 (relative stereo) [Example 123, (6aS,7S,9R)-rel-7,9-Dimethyl-3-(5-phenyl-1,2,4-oxadiazol-3-yl)-6a,7,9,10-tetrahydro-2′H,5H-spiro[1,4-oxazino[4,3-a][1,8]naphthyridine-6,5′-pyrimidine]-2′,4′,6′(1′H,3′H)-trione] | 9 µM | – |
| COc1ccccc1-c1cnc2c(c1)CC1(C(=O)NC(=O)NC1=O)[C@H]1[C@H](C)O[C@H](C)CN21 (relative stereo) [Example 83, (6aS,7S,9R)-rel-3-(2-Methoxyphenyl)-7,9-dimethyl-6a,7,9,10-tetrahydro-2′H,5H-spiro[1,4-oxazino[4,3-a][1,8]naphthyridine-6,5′-pyrimidine]-2′,4′,6′(1′H,3′H)-trione] | > 83 µM | – |
| C[C@@H]1CN2c3cnc(-c4cccnc4)cc3CC3(C(=O)NC(=O)NC3=O)[C@H]2[C@H](C)O1 (racemic) [Example 61, (6aS,7S,9R)-rel-7,9-Dimethyl-3-pyridin-3-yl)-6a,7,9,10-tetrahydro-2′H,5H-spiro[1,4-oxazino[4,3-a][1,7]naphthyridine-6,5′-pyrimidine]-2′,4′,6′(1′H,3′H)-trione] | 18 µM | – |
| C[C@@H]1CN2c3cnc(-c4ccc(N5CCOCC5)nc4)cc3CC3(C(=O)NC(=O)NC3=O)[C@H]2[C@H](C)O1 (relative stereo) [Example 112, (6aS,7S,9R)-rel-7,9-Dimethyl-3-[6-(morpholin-4-yl)pyridin-3-yl]-6a,7,9,10-tetrahydro-2′H,5H-spiro[1,4-oxazino[4,3-a][1,7]naphthyridine-6,5′-pyrimidine]-2′,4′,6′(1′H,3′H)-trione] | > 83 µM | – |
| C[C@@H]1CN2c3cnc(-c4ccnnc4)cc3CC3(C(=O)NC(=O)NC3=O)[C@H]2[C@H](C)O1 (relative stereo) [Example 96, (6aS,7S,9R)-rel-7,9-Dimethyl-3-(pyridazin-4-yl)-6a,7,9,10-tetrahydro-2′H,5H-spiro[1,4-oxazino[4,3-a][1,7]naphthyridine-6,5′-pyrimidine]-2′,4′,6′(1′H,3′H)-trione] | 3 µM | – |
| C[C@H]1C[C@@H](C)[C@H]2N(C1)c1cnc(-c3ccn[nH]3)cc1CC21C(=O)NC(=O)NC1=O [Example 117, (6aR,7R,9S)-7,9-Dimethyl-3-(1H-pyrazol-5-yl)-5,6a,7,8,9,10-hexahydro-1′H-spiro[pyrido[1,2-a][1,7]naphthyridine-6,5′-pyrimidine]-2′,4′,6′(3′H)-trione] | 1 µM | – |
| C[C@@H]1CN2c3ccc(-c4ccccn4)nc3CC3(C(=O)NC(=O)NC3=O)[C@H]2[C@H](C)O1 (racemic) [Example 69, (2R,4S,4aS)-rel-2,4-Dimethyl-8-(pyridin-2-yl)-1,2,4,4a-tetrahydro-2′H,6H-spiro[1,4-oxazino[4,3-a][1,5]naphthyridine-5,5′-pyrimidine]-2′,4′,6′(1′H3″H)-trione] | 29 µM | – |
| C[C@@H]1CN2c3c(nc(Br)c(F)c3Cl)CC3(C(=O)NC(=O)NC3=O)[C@H]2[C@H](C)O1 (relative stereo) [Example 114, (2R,4S,4aS)-rel-8-Bromo-10-chloro-9-fluoro-2,4-dimethyl-2,4,4a,6-tetrahydro-1H,1′H-spiro[[1,4]oxazino[4,3-a][1,5]naphthyridine-5,5′-pyrimidine]-2′,4′,6′(3′H)-trione] | 2 µM | – |
| C[C@@H]1CN2c3cnc(-c4ncco4)cc3CC3(C(=O)NC(=O)NC3=O)[C@H]2[C@H](C)O1 (relative stereo) [Example 99, (6aS,7S,9R)-rel-7,9-Dimethyl-3-(1,3-oxazol-2-yl)-6a,7,9,10-tetrahydro-2′H,5H-spiro[1,4-oxazino[4,3-a][1,7]naphthyridine-6,5′-pyrimidine]-2′,4′,6′(1′H,3′H)-trione] | 44 µM | – |
| C[C@@H]1CN2c3cnc(-c4cccc5cccnc45)cc3CC3(C(=O)NC(=O)NC3=O)[C@H]2[C@H](C)O1 (relative stereo) [Example 62, (6aS,7S,9R)-rel-7,9-Dimethyl-3-(quinolin-8-yl)-6a,7,9,10-tetrahydro-2′H,5H-spiro[1,4-oxazino[4,3-a][1,7]naphthyridine-6,5′-pyrimidine]-2′,4′,6′(1′H,3′H)-trione] | 8 µM | – |
| C[C@@H]1CN2c3ncc(-c4ccccc4)cc3CC3(C(=O)NC(=O)NC3=O)[C@H]2[C@H](C)O1 (relative stereo) [Example 84, (6aS,7S,9R)-rel-7,9-Dimethyl-3-phenyl-6a,7,9,10-tetrahydro-2′H,5H-spiro[1,4-oxazino[4,3-a][1,8]naphthyridine-6,5′-pyrimidine]-2′,4′,6′(1′H,3′H)-trione] | 7 µM | – |
| C[C@@H]1CN2c3ncc(-c4c[nH]cn4)cc3CC3(C(=O)NC(=O)NC3=O)[C@H]2[C@H](C)O1 (relative stereo) [Example 37, (6aS,7S,9R)-rel-3-(1H-Imidazol-4-yl)-7,9-dimethyl-6a,7,9,10-tetrahydro-2′H,5H-spiro[1,4-oxazino[4,3-a][1,8]naphthyridine-6,5′-pyrimidine]-2′,4′,6′(1′H,3′H)-trione] | 12 µM | – |
| C[C@@H]1CN2c3cnc(-c4ccn[nH]4)cc3CC3(C(=O)NC(=O)NC3=O)[C@H]2[C@H](C)O1 (relative stereo) [Example 118, (6aS,7S,9R)-rel-7,9-Dimethyl-3-(1H-pyrazol-5-yl)-6a,7,9,10-tetrahydro-2′H,5H-spiro[1,4-oxazino[4,3-a][1,7]naphthyridine-6,5′-pyrimidine]-2′,4′,6′(1′H,3′H)-trione] | 19 µM | – |
| C[C@@H]1CN2c3ncc(-c4cc5ccccc5s4)cc3CC3(C(=O)NC(=O)NC3=O)[C@H]2[C@H](C)O1 (relative stereo) [Example 28, (6aS,7S,9R)-rel-3-(1-Benzothiophen-2-yl)-7,9-dimethyl-6a,7,9,10-tetrahydro-2′H,5H-spiro[1,4-oxazino[4,3-a][1,8]naphthyridine-6,5′-pyrimidine]-2′,4′,6′(1′H,3′H)-trione] | 2 µM | – |
| C[C@@H]1CN2c3ccc(-c4cccnc4)nc3CC3(C(=O)NC(=O)NC3=O)[C@H]2[C@H](C)O1 (relative stereo) [Example 74, (2R,4S,4aS)-rel-2,4-Dimethyl-8-(pyridin-3-yl)-1,2,4,4a-tetrahydro-2′H,6H-spiro[1,4-oxazino[4,3-a][1,5]naphthyridine-5,5′-pyrimidine]-2′,4′,6′(1′H,3′H)-trione] | 4 µM | – |
| CC1C[C@@H](C)[C@H]2N(C1)c1ccc(Br)nc1CC21C(=O)NC(=O)NC1=O (stereo partly drawn) [Example 8, (6aR,7R)-3-Bromo-7,9-dimethyl-5,6a,7,8,9,10-hexahydro-1′H-spiro[pyrido[1,2-a][1,5]naphthyridine-6,5′-pyrimidine]-2′,4′,6′(3′H)-trione] | > 83 µM | – |
